Measurements as given in ChEMBL document CHEMBL1131646, “Synthesis of some hydroxynaphthazarins and their cardioprotective effects under ischemia-reperfusion in vivo” (Bioorg Med Chem Lett, 1998).

Assays:
[1] = species: Oryctolagus cuniculus; test: Myocardial infarction (MI) size was calculated as a percentage of the infarct area to the total area of the left ventricle of male chinchilla rabbits; assay type: functional, Heart left ventricle; set-up: concentration or dose not given beside the values
[2] = Lethal dose to produce acute toxicity was evaluated in white crossbred mice weighing 20-25 g; details: mouse, in vivo

Question: Which results are given for `Cc1c(O)c(O)c2c(c1O)C(=O)C(SC[C@H](NC(=O)CC[C@H](N)C(=O)O)C(=O)NCC(=O)O)=C(SC[C@H](NC(=O)CC[C@H](N)C(=O)O)C(=O)NCC(=O)O)C2=O`?
Answer: Activity [1]: 7.15%; LD50 [2]: 1350 mg/kg

Question: What does the source list for `CC(C)(C)C1=CC(=O)c2c(O)c(O)c(O)c(O)c2C1=O`?
Answer: Activity [1]: 10.18%; LD50 [2]: 170 mg/kg

Question: What does the source list for `CCCC1=C(O)C(=O)c2c(O)c(O)c(O)c(O)c2C1=O`?
Answer: Activity [1]: 10.08%; LD50 [2]: 80 mg/kg

Question: For `Cc1c(O)c(O)c2c(c1O)C(=O)C(SCCO)=C(SCCO)C2=O`, which Activity [1] is on record?
Answer: 9.97%

Question: What about the LD50 [2] of the same compound?
Answer: 150 mg/kg

Question: With `O=C(O)CCC1=C(O)C(=O)c2c(O)c(O)c(O)c(O)c2C1=O` as the compound, how does the Activity [1] read?
Answer: 7.9%

Question: What about the LD50 [2] of the same compound?
Answer: 95 mg/kg

Question: Which results are given for `CCc1c(O)c(O)c2c(c1O)C(=O)C(SC[C@H](NC(=O)CC[C@H](N)C(=O)O)C(=O)NCC(=O)O)=C(SC[C@H](NC(=O)CC[C@H](N)C(=O)O)C(=O)NCC(=O)O)C2=O`?
Answer: Activity [1]: 8.35%; LD50 [2]: 1480 mg/kg

Question: Which Activity [1] does the source give for `N[C@@H](CCC(=O)N[C@@H](CSC1=C(SC[C@H](NC(=O)CC[C@H](N)C(=O)O)C(=O)NCC(=O)O)C(=O)c2c(O)c(O)c(O)c(O)c2C1=O)C(=O)NCC(=O)O)C(=O)O` here?
Answer: 12.37%

Question: What about the LD50 [2] of the same compound?
Answer: 1210 mg/kg

Question: What does the source list for `CCC1=C(O)C(=O)c2c(O)c(O)c(O)c(O)c2C1=O` [ECHINOCHROME A]?
Answer: Activity [1]: 7.76%; LD50 [2]: 87 mg/kg

Question: For `O=[N+]([O-])OCC(CO[N+](=O)[O-])O[N+](=O)[O-]` [NITROGLYCERIN], which Activity [1] is on record?
Answer: 15.23%

Question: With `COc1ccc(CCN(C)CCCC(C#N)(c2ccc(OC)c(OC)c2)C(C)C)cc1OC` (stereo not drawn) [VERAPAMIL] as the compound, how does the Activity [1] read?
Answer: 6.51%
